In ChEMBL document CHEMBL5584282, “The New Frontier in Neurotherapeutics: From Brain Stimulation to Novel Psychotropics” (ACS Med Chem Lett, 2024):
Calls of active or inactive are those of the source. No cut-off for these calls is given here.

Assays:
Type in all cases: functional, cell-based
Cortical neurone [1] = assay: Neuroplasticity effect in Wistar rat brain cortical neuron assessed as neurite outgrowth by measuring increase in neurite length at <=10 uM incubated for 72 hrs by DAPI staining based imaging analysis
Cortical neurone [2] = assay: Neuroplasticity effect in Wistar rat brain cortical neuron assessed as neurite outgrowth by measuring increase in neurite branching at <=10 uM incubated for 72 hrs by DAPI staining based imaging analysis
Cortical neurone [3] = assay: Neuroplasticity effect in Wistar rat brain cortical neuron assessed as neurite outgrowth by measuring increase in neurite number at <=10 uM incubated for 72 hrs by DAPI staining based imaging analysis

SMILES: CN1CCCc2oc3cccc(F)c3c2C1
- Activity (Cortical neurone [1]): Active
- Activity (Cortical neurone [2]): Active
- Activity (Cortical neurone [3]): Active

SMILES: CN1CCc2oc3cccc(F)c3c2CC1
- Activity (Cortical neurone [1]): Active
- Activity (Cortical neurone [2]): Active
- Activity (Cortical neurone [3]): inactive

SMILES: COc1ccc2c3c(oc2c1)CCCN(CC(F)(F)F)C3
- Activity (Cortical neurone [1]): Active
- Activity (Cortical neurone [2]): Active
- Activity (Cortical neurone [3]): Active

SMILES: FC(F)(F)Oc1cccc2sc3c(c12)CCN(C1CCC1)CC3
- Activity (Cortical neurone [1]): Active
- Activity (Cortical neurone [2]): Active
- Activity (Cortical neurone [3]): Active

SMILES: Fc1cccc2oc3c(c12)CCN(C1CCC1)CC3
- Activity (Cortical neurone [1]): Active
- Activity (Cortical neurone [2]): inactive
- Activity (Cortical neurone [3]): Active

SMILES: COc1cccc2oc3c(c12)CN(C1CCC1)CCC3
- Activity (Cortical neurone [1]): inactive
- Activity (Cortical neurone [2]): inactive
- Activity (Cortical neurone [3]): inactive

SMILES: FC(F)(F)CN1CCc2sc3ccccc3c2CC1
- Activity (Cortical neurone [1]): Active
- Activity (Cortical neurone [2]): Active
- Activity (Cortical neurone [3]): inactive

SMILES: COc1cccc2oc3c(c12)CCNCC3
- Activity (Cortical neurone [1]): inactive
- Activity (Cortical neurone [2]): inactive
- Activity (Cortical neurone [3]): inactive

SMILES: COc1ccc2c3c(oc2c1)CCCN(C1CCC1)C3
- Activity (Cortical neurone [1]): Active
- Activity (Cortical neurone [2]): Active
- Activity (Cortical neurone [3]): Active

SMILES: Fc1ccc2c3c(oc2c1)CCCNC3
- Activity (Cortical neurone [1]): Active
- Activity (Cortical neurone [2]): Active
- Activity (Cortical neurone [3]): Active

SMILES: COc1ccc2c3c(sc2c1)CCNCC3
- Activity (Cortical neurone [1]): Active
- Activity (Cortical neurone [2]): Active
- Activity (Cortical neurone [3]): Active

SMILES: COc1ccc2c3c(oc2c1)CCCN(C)C3
- Activity (Cortical neurone [1]): Active
- Activity (Cortical neurone [2]): Active
- Activity (Cortical neurone [3]): Active

SMILES: COc1cccc2oc3c(c12)CCN(C1CCC1)CC3
- Activity (Cortical neurone [1]): Active
- Activity (Cortical neurone [2]): Active
- Activity (Cortical neurone [3]): Active

SMILES: Fc1cccc2oc3c(c12)CN(C1CCC1)CCC3
- Activity (Cortical neurone [1]): Active
- Activity (Cortical neurone [2]): Active
- Activity (Cortical neurone [3]): Active

SMILES: Fc1cccc2oc3c(c12)CN(CC(F)(F)F)CCC3
- Activity (Cortical neurone [1]): Active
- Activity (Cortical neurone [2]): Active
- Activity (Cortical neurone [3]): Active
